Experimental data published in patent publication US11214574B2, “Selective inhibitors of protein arginine methyltransferase 5 (PRMT5)” (Prelude Therapeutics, Incorporated, priority 2018, dated 2022).

Key:
[1] = test system: sDMA marks (SmD3me2s) in Granta-519 cells; assay: Western blotting for symmetric di-methyl arginine (sDMA) marks in Granta-519 cells; format: cell-based; settings: Homo sapiens, 72 h; Granta-519 cell line (values in square brackets), 3 days treatment
Protocol: Cell Treatment and Western Blotting for Detecting Symmetric Di-Methyl Arginine (sDMA) Marks
Compound titration and cell culture: Compounds were dissolved in DMSO to make 10 mM stock and 3-fold series dilutions were further conducted to make working stocks top at 1 mM. Granta-519 cells were maintained in PRMI 1640 (Corning Cellgro, Catalog #: 10-040-CV) supplemented with 10% v/v FBS (GE Healthcare, Catalog #: SH30910.03) and U-87 MG cells were maintained in DMEM (Corning Cellgro, Catalog #: 10-013-CV) with 10% FBS and 2 mM Glutamin (Corning Cellgro, Catalog #25005CV).
To determine enzyme inhibition IC50 values in Granta-519 and U-87 MG cells using Western Blot analysis. One day before experiment, Granta-519 cells were passaged to a density of 0.5×10^6 cells/ml. U-87 MG cells were trypsinized and 4×10^5 cells were seeded into 6-well plates and allow to grow overnight. […]
Cells were harvested 3 days later, resuspended in 15 uL PBS, lysed in 4% SDS, and homogenized by passing through homogenizer column (Omega Biotek, Catalog #: HCR003). Total protein concentrations were determined by BCA assay (ThermoFisher Scientific, Catalog #: 23225). […] SmD3me2s bands were quantified by ImageJ. […] IC50 values were calculated using Graphpad Prism ([Inhibitor] vs. normalized response—Variable slope).

[2] = test system: γ-globin expression in K562 cells; assay: γ-globin induction by quantitative PCR in K562 cells; format: cell-based; settings: 0.1 μM, 6 days, N=1
Protocol: Compounds were dissolved in DMSO to make 10 mM stock solutions, and further diluted to make 1 mM and 0.1 mM stocks.
K562 cells were purchased from ATCC and maintained in Iscove's DMEM (Corning Cellgro, Catalog #15-016-CVR) supplemented with 10% v/v FBS (GE Healthcare, Catalog #: SH30910.03) in a CO2 incubator (5% CO2) at 37° C. Cells were plated at a density of 5×10^5 cells/ml and treated with compound at final concentrations of 0.1 and 1 μM. Media and compound were renewed after 3 days in culture and cells were collected for RNA isolation after 6 days of treatment.
Assessment of γ-Globin Induction by Quantitative PCR
RNA was isolated using Quick-RNA Microprep kit (Zymo Research, Catalog #Z1050), cDNA was synthesized using qScript cDNA SuperMix (Quantabio, Catalog #95048). Quantitative PCR for γ-globin was performed using PerfeCTa SYBR Green FastMix (Quantabio, Catalog #95071) on Bio-Rad CFX Connect Real-Time PCR Detection System. Gene expression analysis was performed using CFX Manager software.
Assessment of γ-Globin Induction by Quantitative PCR in K562 Cells
Compounds were dissolved in DMSO to make 10 mM stock solutions, and further diluted to make 1 mM and 0.1 mM stocks. K562 cells were purchased from ATCC and maintained in Iscove's DMEM (Corning Cellgro, Catalog #15-016-CVR) supplemented with 10% v/v FBS (GE Healthcare, Catalog #: SH30910.03) in a CO2 incubator (5% CO2) at 37° C. […]

PRMT5/MEP50 complex = PRMT5/MEP50 complex (Homo sapiens (Human), UniProt O14744); assay: PRMT5 biochemical assay (SPA, 3H-SAM); settings: PRMT5/MEP50 2.5 nM, 300 nM AcH4-23 substrate, 1 μM 3H-SAM
Sequence of PRMT5/MEP50 complex (O14744 whole entry): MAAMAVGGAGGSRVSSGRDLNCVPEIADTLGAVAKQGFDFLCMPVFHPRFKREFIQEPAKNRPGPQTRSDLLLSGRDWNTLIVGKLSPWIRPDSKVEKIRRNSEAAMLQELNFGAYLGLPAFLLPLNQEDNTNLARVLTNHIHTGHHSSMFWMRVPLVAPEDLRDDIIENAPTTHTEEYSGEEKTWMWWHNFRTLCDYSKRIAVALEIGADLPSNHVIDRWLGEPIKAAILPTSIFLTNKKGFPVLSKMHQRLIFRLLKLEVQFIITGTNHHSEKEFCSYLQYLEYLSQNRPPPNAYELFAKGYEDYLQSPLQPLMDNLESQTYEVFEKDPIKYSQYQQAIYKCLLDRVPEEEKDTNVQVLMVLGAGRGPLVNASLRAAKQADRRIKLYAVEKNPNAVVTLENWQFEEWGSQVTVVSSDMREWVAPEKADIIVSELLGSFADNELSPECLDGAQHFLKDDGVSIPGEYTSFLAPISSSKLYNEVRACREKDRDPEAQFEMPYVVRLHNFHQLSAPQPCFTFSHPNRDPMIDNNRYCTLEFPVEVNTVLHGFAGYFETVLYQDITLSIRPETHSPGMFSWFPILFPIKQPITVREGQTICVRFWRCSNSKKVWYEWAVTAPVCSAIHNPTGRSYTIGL
Sequence of PRMT5/MEP50 complex (Q9BQA1 whole entry partner): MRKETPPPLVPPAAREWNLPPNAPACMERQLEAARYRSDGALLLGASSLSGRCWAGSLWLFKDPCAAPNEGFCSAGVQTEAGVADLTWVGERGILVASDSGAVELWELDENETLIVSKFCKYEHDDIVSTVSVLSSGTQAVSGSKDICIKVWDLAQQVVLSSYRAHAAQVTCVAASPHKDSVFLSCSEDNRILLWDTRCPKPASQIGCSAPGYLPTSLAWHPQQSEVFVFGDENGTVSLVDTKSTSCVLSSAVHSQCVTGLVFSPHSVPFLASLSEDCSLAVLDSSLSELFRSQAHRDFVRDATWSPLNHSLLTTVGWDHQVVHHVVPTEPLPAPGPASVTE
Protocol: Biochemical Assay Protocol
Compounds were solubilized and 3-fold diluted in 100% DMSO. […] Standard reactions were performed in a total volume of 30 μl in assay buffer, with 300 nM histone H4 based AcH4-23 (Anaspec: AS-65002) as substrate. To this was added the PRMT5/MEP50 complex diluted to provide a final assay concentration of 2.5 nM and the compounds were allowed to preincubate for 20 minutes at 37° C. The reaction was initiated by adding S-[3H-methyl]-adenosyl-L-methionine (PerkinElmer: NET155001MC) to final concentration of 1 μM. Following a 30 minutes incubation at 37° C., the reaction was stopped by adding 25 μL of 8M Guanidine HCl. Prepare streptavidin YSI SPA beads (Perkinelmer: RPNQ0012) at 0.3 mg/mL in assay buffer. To each reaction, add 150 μL of SPA beads suspension, and incubated while shaking at room temperature for 30 minutes. The plate was centrifuged at 100×g for 30 second before reading in a scintillation counter. IC50 values were determined by fitting the data to the standard 4 parameters with Hill Slope using GraphPad Prism software.

| Structure (SMILES) | IC50 (PRMT5/MEP50 complex) [nM] | further results |
| --- | --- | --- |
| Nc1ncnc2c1ccn2[C@@H]1C[C@H]([C@H]2OCc3cc(Cl)ccc32)[C@@H](O)[C@H]1O [Example 2A, (1R,2S,3R,5S)-3-(4-amino-7H-pyrrolo[2,3-d]pyrimidin-7-yl)-5-((R)-5-chloro-1,3-dihydroisobenzofuran-1-yl)cyclopentane-1,2-diol] | – | IC50 [1]: 27 nM |
| Nc1ncnc2c1ccn2[C@@H]1O[C@H]([C@@H]2OCc3ccc(Cl)cc32)[C@@H](O)[C@H]1O [Example 5, (2R,3R,4S,5S)-2-(4-amino-7H-pyrrolo[2,3-d]pyrimidin-7-yl)-5-((R)-6-chloro-1,3-dihydroisobenzofuran-1-yl)tetrahydrofuran-3,4-diol] | – | increase in expression of γ-globin [2]: 3 fold |
| Nc1ncnc2c1ccn2[C@@H]1O[C@H]([C@@H]2OCOCc3cc(Cl)ccc32)[C@@H](O)[C@H]1O [Example 81, (2R,3R,4S,5S)-2-(4-amino-7H-pyrrolo[2,3-d]pyrimidin-7-yl)-5-((R)-7-chloro-1,5-dihydrobenzo[e][1,3]dioxepin-1-yl)tetrahydrofuran-3,4-diol] | 41.5 | – |
| Cc1ncnc2c1ccn2[C@@H]1O[C@H]([C@@H]2OCCCc3cc(Cl)ccc32)[C@@H](O)[C@H]1O [Example 101, (2S,3S,4R,5R)-2-((R)-7-chloro-1,3,4,5-tetrahydrobenzo[c]oxepin-1-yl)-5-(4-methyl-7H-pyrrolo[2,3-d]pyrimidin-7-yl)tetrahydrofuran-3,4-diol] | 1580 | – |
